Data taken from patent US20230085307A1, “PYRIDAZINONE COMPOUND AND HERBICIDE” (NISSAN CHEMICAL CORPORATION, priority 2019, published 2023).

What follows are compounds tested on windgrass (assay: Test Example 4: herbicidal effect by soil treatment (Table 19, symbol L)). Conditions: 320 g/ha.
Type: in vivo, windgrass (Apera spica-venti)
Summary of the method: (§1)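 Soil-surface application: an emulsion agent diluted with water to the predetermined dose is sprayed uniformly over seeds lying under roughly 1.5 cm of sterilized diluvial soil. Boxes stay in a greenhouse at 25° C. to 30° C. Three weeks later, each species is graded on previously defined criteria.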

| SMILES | herbicidal effect rating, L: windgrass |
| --- | --- |
| Cc1nn(C)c(=O)c(-c2c(-c3ccc(OCC4CC4)cc3)sc3ccc(F)cc23)c1O [2-060] | 0 (Herbicidal rate of 5% or less (almost no effect)) |
| Cc1nn(C)c(=O)c(-c2c(-c3ccc(OCc4ccccc4)cc3)sc3ccc(F)cc23)c1O [2-062] | 0 (Herbicidal rate of 5% or less (almost no effect)) |

These compounds were tested on green foxtail (assay: Test Example 5: herbicidal effect by foliage application, plastic box (Table 20, symbol G)). Conditions: foliage application, 320 g/ha, evaluated three weeks after application.
Type: in vivo, green foxtail (Setaria viridis)
Summary of the method: (§2)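 Sow seeds spot-wise in sterilized diluvial soil; cover with ~1.5 cm soil. Grow 14 days in greenhouse, 25° C. to 30° C. Spray foliage with emulsion diluted to predetermined amount. Rate effect after 3 weeks.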

| SMILES | herbicidal effect on G: green foxtail |
| --- | --- |
| Cc1nn(C)c(=O)c(-c2c(-c3ccc(OCC4CC4)cc3)sc3ccc(F)cc23)c1O [2-060] | 3 (Herbicidal rate of 40% or more and less than 70%) |
| Cc1nn(C)c(=O)c(-c2c(-c3ccc(OCc4ccccc4)cc3)sc3ccc(F)cc23)c1O [2-062] | 5 (Herbicidal rate of 90% or more (almost completely withered)) |

Each compound was assayed on redroot pigweed (assay: Test Example 5: herbicidal effect by foliage application, plastic box (Table 20, symbol N)). Conditions: foliage application, 320 g/ha, evaluated three weeks after application.
Type: in vivo, redroot pigweed (Amaranthus retroflexus)
Summary of the method: as §2

| SMILES | herbicidal effect on N: redroot pigweed |
| --- | --- |
| Cc1nn(C)c(=O)c(-c2c(-c3ccc(OCC4CC4)cc3)sc3ccc(F)cc23)c1O [2-060] | 5 (Herbicidal rate of 90% or more (almost completely withered)) |
| Cc1nn(C)c(=O)c(-c2c(-c3ccc(OCc4ccccc4)cc3)sc3ccc(F)cc23)c1O [2-062] | 5 (Herbicidal rate of 90% or more (almost completely withered)) |

The compounds below were run on rice flat sedge (assay: Test Example 3: herbicidal effect by foliage application, Wagner pot (Table 18, symbol E)). Conditions: 320 g/ha.
Type: in vivo, rice flat sedge (Cyperus iria)
Summary of the method: (§3)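 Plants were sown in alluvial soil held under 0.1–0.5 cm standing water and grown 14 days in a greenhouse at 25–30 °C. An emulsifiable formulation, water-diluted to the set dose, was then sprayed onto the foliage, and effects were scored three weeks later using previously defined criteria.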

| SMILES | herbicidal effect on E (rice flat sedge), rating 0-5 |
| --- | --- |
| Cc1nn(C)c(=O)c(-c2c(-c3ccc(OCC4CC4)cc3)sc3ccc(F)cc23)c1O [2-060] | 5 (Herbicidal rate of 90% or more (almost completely withered)) |
| Cc1nn(C)c(=O)c(-c2c(-c3ccc(OCc4ccccc4)cc3)sc3ccc(F)cc23)c1O [2-062] | 5 (Herbicidal rate of 90% or more (almost completely withered)) |

The compounds below were run on Italian ryegrass (assay: Test Example 5: herbicidal effect by foliage application, plastic box (Table 20, symbol K)). Conditions: foliage application, 320 g/ha, evaluated three weeks after application.
Type: in vivo, Italian ryegrass (Lolium multiflorum)
Summary of the method: as §2

| SMILES | herbicidal effect on K: Italian ryegrass |
| --- | --- |
| Cc1nn(C)c(=O)c(-c2c(-c3ccc(OCC4CC4)cc3)sc3ccc(F)cc23)c1O [2-060] | 0 (Herbicidal rate of 5% or less (almost no effect)) |
| Cc1nn(C)c(=O)c(-c2c(-c3ccc(OCc4ccccc4)cc3)sc3ccc(F)cc23)c1O [2-062] | 1 (Herbicidal rate of 5% or more and less than 20%) |

Each compound was assayed on blackgrass (assay: Test Example 5: herbicidal effect by foliage application, plastic box (Table 20, symbol J)). Conditions: foliage application, 320 g/ha, evaluated three weeks after application.
Type: in vivo, blackgrass (Alopecurus myosuroides)
Summary of the method: as §2

| SMILES | herbicidal effect on J: blackgrass |
| --- | --- |
| Cc1nn(C)c(=O)c(-c2c(-c3ccc(OCC4CC4)cc3)sc3ccc(F)cc23)c1O [2-060] | 3 (Herbicidal rate of 40% or more and less than 70%) |
| Cc1nn(C)c(=O)c(-c2c(-c3ccc(OCc4ccccc4)cc3)sc3ccc(F)cc23)c1O [2-062] | 1 (Herbicidal rate of 5% or more and less than 20%) |

Each compound was assayed on Japanese bulrush (assay: Test Example 1: herbicidal activity, application before weed generation under submerged conditions (Table 16, symbol B)). Conditions: 320 g/ha applied herbicide.
Type: in vivo, Japanese bulrush (Schoenoplectus juncoides)
Summary of the method: (§4)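 Emulsion formulation, water-diluted to set dose, was put onto the flooded surface (4 cm depth, alluvial soil) the same day weeds were sown and 2.5-leaf rice transplanted. After 3 weeks at 25-30 °C under glass, each species was rated 0 (≤5% kill) to 5 (≥90% kill).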

| SMILES | Herbicidal effect on B: Japanese bulrush (grade 0-5) |
| --- | --- |
| Cc1nn(C)c(=O)c(-c2c(-c3ccc(OCC4CC4)cc3)sc3ccc(F)cc23)c1O [2-060] | 5 (Herbicidal rate of 90% or more (almost completely withered)) |
| Cc1nn(C)c(=O)c(-c2c(-c3ccc(OCc4ccccc4)cc3)sc3ccc(F)cc23)c1O [2-062] | 4 (Herbicidal rate of 70% or more and less than 90%) |

What follows are compounds tested on late watergrass (assay: Test Example 1: herbicidal activity, application before weed generation under submerged conditions (Table 16, symbol A)). Conditions: 320 g/ha applied herbicide.
Type: in vivo, late watergrass (Echinochloa oryzicola)
Summary of the method: as §4

| SMILES | Herbicidal effect on A: late watergrass (grade 0-5) |
| --- | --- |
| Cc1nn(C)c(=O)c(-c2c(-c3ccc(OCC4CC4)cc3)sc3ccc(F)cc23)c1O [2-060] | 0 (Herbicidal rate of 5% or less (almost no effect)) |
| Cc1nn(C)c(=O)c(-c2c(-c3ccc(OCc4ccccc4)cc3)sc3ccc(F)cc23)c1O [2-062] | 4 (Herbicidal rate of 70% or more and less than 90%) |

The compounds below were run on redroot pigweed (assay: Test Example 4: herbicidal effect by soil treatment (Table 19, symbol N)). Conditions: 320 g/ha.
Type: in vivo, redroot pigweed (Amaranthus retroflexus)
Summary of the method: as §1

| SMILES | herbicidal effect rating, N: redroot pigweed |
| --- | --- |
| Cc1nn(C)c(=O)c(-c2c(-c3ccc(OCC4CC4)cc3)sc3ccc(F)cc23)c1O [2-060] | 5 (Herbicidal rate of 90% or more (almost completely withered)) |
| Cc1nn(C)c(=O)c(-c2c(-c3ccc(OCc4ccccc4)cc3)sc3ccc(F)cc23)c1O [2-062] | 4 (Herbicidal rate of 70% or more and less than 90%) |

These compounds were tested on late watergrass (assay: Test Example 2: herbicidal activity, application during weed generation under submerged conditions (Table 17, symbol A)). Conditions: AAH 320 g/ha; application during weed generation, submerged conditions.
Type: in vivo, late watergrass (Echinochloa oryzicola)
Summary of the method: (§5)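 Mixed weed seedlings in alluvial soil under a 4 cm water layer, greenhouse-grown at 25–30° C. Compound given as a diluted emulsion into the floodwater at the 1–2 leaf stage; response graded after three weeks.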

| SMILES | herbicidal effect rating, A: late watergrass |
| --- | --- |
| Cc1nn(C)c(=O)c(-c2c(-c3ccc(OCC4CC4)cc3)sc3ccc(F)cc23)c1O [2-060] | 0 (Herbicidal rate of 5% or less (almost no effect)) |
| Cc1nn(C)c(=O)c(-c2c(-c3ccc(OCc4ccccc4)cc3)sc3ccc(F)cc23)c1O [2-062] | 0 (Herbicidal rate of 5% or less (almost no effect)) |

What follows are compounds tested on oval-leafed pondweed (assay: Test Example 2: herbicidal activity, application during weed generation under submerged conditions (Table 17, symbol C)). Conditions: AAH 320 g/ha; application during weed generation, submerged conditions.
Type: in vivo, oval-leafed pondweed (Monochoria vaginalis)
Summary of the method: as §5

| SMILES | herbicidal effect rating, C: oval-leafed pondweed |
| --- | --- |
| Cc1nn(C)c(=O)c(-c2c(-c3ccc(OCC4CC4)cc3)sc3ccc(F)cc23)c1O [2-060] | 1 (Herbicidal rate of 5% or more and less than 20%) |
| Cc1nn(C)c(=O)c(-c2c(-c3ccc(OCc4ccccc4)cc3)sc3ccc(F)cc23)c1O [2-062] | 2 (Herbicidal rate of 20% or more and less than 40%) |

Each compound was assayed on barnyard grass (assay: Test Example 5: herbicidal effect by foliage application, plastic box (Table 20, symbol H)). Conditions: foliage application, 320 g/ha, evaluated three weeks after application.
Type: in vivo, barnyard grass (Echinochloa crus-galli)
Summary of the method: as §2

| SMILES | herbicidal effect on H: barnyard grass |
| --- | --- |
| Cc1nn(C)c(=O)c(-c2c(-c3ccc(OCC4CC4)cc3)sc3ccc(F)cc23)c1O [2-060] | 3 (Herbicidal rate of 40% or more and less than 70%) |
| Cc1nn(C)c(=O)c(-c2c(-c3ccc(OCc4ccccc4)cc3)sc3ccc(F)cc23)c1O [2-062] | 5 (Herbicidal rate of 90% or more (almost completely withered)) |

Each compound was assayed on wild oat (assay: Test Example 5: herbicidal effect by foliage application, plastic box (Table 20, symbol I)). Conditions: foliage application, 320 g/ha, evaluated three weeks after application.
Type: in vivo, wild oat (Avena fatua)
Summary of the method: as §2

| SMILES | herbicidal effect on I: wild oat |
| --- | --- |
| Cc1nn(C)c(=O)c(-c2c(-c3ccc(OCC4CC4)cc3)sc3ccc(F)cc23)c1O [2-060] | 0 (Herbicidal rate of 5% or less (almost no effect)) |
| Cc1nn(C)c(=O)c(-c2c(-c3ccc(OCc4ccccc4)cc3)sc3ccc(F)cc23)c1O [2-062] | 0 (Herbicidal rate of 5% or less (almost no effect)) |

The compounds below were run on Italian ryegrass (assay: Test Example 4: herbicidal effect by soil treatment (Table 19, symbol K)). Conditions: 320 g/ha.
Type: in vivo, Italian ryegrass (Lolium multiflorum)
Summary of the method: as §1

| SMILES | herbicidal effect rating, K: Italian ryegrass |
| --- | --- |
| Cc1nn(C)c(=O)c(-c2c(-c3ccc(OCC4CC4)cc3)sc3ccc(F)cc23)c1O [2-060] | 0 (Herbicidal rate of 5% or less (almost no effect)) |
| Cc1nn(C)c(=O)c(-c2c(-c3ccc(OCc4ccccc4)cc3)sc3ccc(F)cc23)c1O [2-062] | 0 (Herbicidal rate of 5% or less (almost no effect)) |

Each compound was assayed on barnyard grass (assay: Test Example 3: herbicidal effect by foliage application, Wagner pot (Table 18, symbol H)). Conditions: 320 g/ha.
Type: in vivo, barnyard grass (Echinochloa crus-galli)
Summary of the method: as §3

| SMILES | herbicidal effect on H (barnyard grass), rating 0-5 |
| --- | --- |
| Cc1nn(C)c(=O)c(-c2c(-c3ccc(OCC4CC4)cc3)sc3ccc(F)cc23)c1O [2-060] | 3 (Herbicidal rate of 40% or more and less than 70%) |
| Cc1nn(C)c(=O)c(-c2c(-c3ccc(OCc4ccccc4)cc3)sc3ccc(F)cc23)c1O [2-062] | 5 (Herbicidal rate of 90% or more (almost completely withered)) |

These compounds were tested on Chinese sprangletop (assay: Test Example 3: herbicidal effect by foliage application, Wagner pot (Table 18, symbol D)). Conditions: 320 g/ha.
Type: in vivo, chinese sprangletop (Leptochloa chinensis)
Summary of the method: as §3

| SMILES | herbicidal effect on D (Chinese sprangletop), rating 0-5 |
| --- | --- |
| Cc1nn(C)c(=O)c(-c2c(-c3ccc(OCC4CC4)cc3)sc3ccc(F)cc23)c1O [2-060] | 3 (Herbicidal rate of 40% or more and less than 70%) |
| Cc1nn(C)c(=O)c(-c2c(-c3ccc(OCc4ccccc4)cc3)sc3ccc(F)cc23)c1O [2-062] | 5 (Herbicidal rate of 90% or more (almost completely withered)) |
